Experimental data from patent US20170260178A1 (SPERO GYRASE, INC., priority 2012, published 2017).
Converted amounts (≈) assume the structure as drawn.

Tests used:
S. pyogenes (ATCC 51339) = assay: Bacterial assay: MIC against S. pyogenes; assay type: cell-based, Streptococcus pyogenes; settings: Streptococcus pyogenes, ATCC51339, read-out: minimal inhibitory concentration (MIC)
[1] = tested on: H. influenzae (ATCC 49247); assay: Bacterial assay: MIC against H. influenzae; assay type: cell-based; settings: Haemophilus influenzae, ATCC49247; H. influenzae ATCC 49247; read-out: minimal inhibitory concentration (MIC)
S. aureus (ATCC 29213) = assay: Bacterial assay: MIC against S. aureus; assay type: cell-based, Staphylococcus aureus; settings: Staphylococcus aureus, ATCC29213, read-out: minimal inhibitory concentration (MIC)

SMILES	MIC (S. pyogenes (ATCC 51339)) [µg/mL]	MIC [1] [µg/mL]	MIC (S. aureus (ATCC 29213)) [µg/mL]
CCNC(=O)Nc1nc2cc(-c3cnc([C@@H](C)O)nc3)cc(-c3ccccn3)c2s1 [Compound 22, 1-ethyl-3-[5-[2-[(1R)-1-hydroxyethyl]pyrimidin-5-yl]-7-(2-pyridyl)-1,3-benzothiazol-2-yl]urea]	≤ 1	≤ 2	≤ 1
CCNC(=O)Nc1nc2cc(-c3ccc(C(O)C(F)(F)F)nc3)cc(-c3ccccn3)c2s1 (stereo not drawn) [Compound 96, 1-ethyl-3-[7-(2-pyridyl)-5-[6-(2,2,2-trifluoro-1-hydroxy-ethyl)-3-pyridyl]-1,3-benzothiazol-2-yl]urea]	≤ 1	≤ 2	≤ 1
CCNC(=O)Nc1nc2cc(-c3cnc(C(O)CN4CCOCC4)nc3)cc(-c3ccccn3)c2s1 (stereo not drawn) [Compound 81, 1-ethyl-3-[5-[2-(1-hydroxy-2-morpholino-ethyl)pyrimidin-5-yl]-7-(2-pyridyl)-1,3-benzothiazol-2-yl]urea]	≤ 1	≤ 2	≤ 1
CCNC(=O)Nc1nc2cc(-c3cnc(C(C)(C)O)nc3)cc(-c3cc(CN4CC(OC)C4)ccn3)c2s1 [Compound 31, 1-ethyl-3-[5-[2-(1-hydroxy-1-methyl-ethyl)pyrimidin-5-yl]-7-[4-[(3-methoxyazetidin-1-yl)methyl]-2-pyridyl]-1,3-benzothiazol-2-yl]urea]	≤ 1	≤ 2	≤ 1
CCNC(=O)Nc1nc2cc(-c3cnc(C4(O)CCCC4)nc3)cc(-c3ccccn3)c2s1 [Compound 119, 1-ethyl-3-[5-[2-(1-hydroxycyclopentyl)pyrimidin-5-yl]-7-(2-pyridyl)-1,3-benzothiazol-2-yl]urea]	≤ 1	≤ 2	≤ 1
CCNC(=O)Nc1nc2cc(-c3cnc(C(O)CO)nc3)cc(-c3ccccn3)c2s1 (stereo not drawn) [Compound 40, 1-[5-[2-(1,2-dihydroxyethyl)pyrimidin-5-yl]-7-(2-pyridyl)-1,3-benzothiazol-2-yl]-3-ethyl-urea]	≤ 1	≤ 2	≤ 1
CCNC(=O)Nc1nc2cc(-c3cnc(C(C)O)nc3)cc(-c3ccc(C)cn3)c2s1 (stereo not drawn) [Compound 158, 1-ethyl-3-[5-[2-[1-hydroxyethyl]pyrimidin-5-yl]-7-(5-methyl-2-pyridyl)-1,3-benzothiazol-2-yl]urea]	≤ 1	≤ 2	≤ 1
CCNC(=O)Nc1nc2cc(-c3cnc(C(C)O)nc3)cc(-c3cc(CSC)ccn3)c2s1 (stereo not drawn) [Compound 15, 1-ethyl-3-[5-[2-(1-hydroxyethyl)pyrimidin-5-yl]-7-[4-(methylsulfanylmethyl)-2-pyridyl]-1,3-benzothiazol-2-yl]urea]	≤ 1	≤ 2	≤ 1
CCNC(=O)Nc1nc2cc(-c3cnc(C(C)O)nc3)cc(-c3cc(CN4CCSCC4)ccn3)c2s1 (stereo not drawn) [Compound 185, 1-ethyl-3-[5-[2-[1-hydroxyethyl]pyrimidin-5-yl]-7-[4-(thiomorpholinomethyl)-2-pyridyl]-1,3-benzothiazol-2-yl]urea]	≤ 1	≤ 2	≤ 1
CCNC(=O)Nc1nc2cc(-c3cnc(C(C)(C)O)nc3)cc(-c3cc(CN4CC[C@@H](F)C4)ccn3)c2s1 [Compound 36, 1-ethyl-3-[7-[4-[[(3R)-3-fluoropyrrolidin-1-yl]methyl]-2-pyridyl]-5-[2-(1-hydroxy-1-methyl-ethyl)pyrimidin-5-yl]-1,3-benzothiazol-2-yl]urea]	≤ 1	≤ 2	≤ 1
[2H]C1([2H])OC([2H])([2H])C([2H])([2H])N(Cc2ccnc(-c3cc(-c4cnc(C(C)(C)O)nc4)cc4nc(NC(=O)NCC)sc34)c2)C1([2H])[2H] [Compound 198, 1-ethyl-3-[5-[2-(1-hydroxy-1-methyl-ethyl)pyrimidin-5-yl]-7-[4-[(2,2,3,3,5,5,6,6-octadeuteriomorpholin-4-yl)methyl]-2-pyridyl]-1,3-benzothiazol-2-yl]urea]	–	≤ 2	≤ 1
CCNC(=O)Nc1nc2cc(-c3cnc([C@@H](C)O)nc3)cc(-c3ccc(OC)cn3)c2s1 [Compound 202, 1-ethyl-3-[5-[2-[(1R)-1-hydroxyethyl]pyrimidin-5-yl]-7-(5-methoxy-2-pyridyl)-1,3-benzothiazol-2-yl]urea]	–	≤ 2	≤ 1
CCNC(=O)Nc1nc2cc(-c3cnc(C(C)(C)O)nc3)cc(-c3ccc(CN4CCOCC4)cn3)c2s1 [Compound 25, 1-ethyl-3-[5-[2-(1-hydroxy-1-methyl-ethyl)pyrimidin-5-yl]-7-[5-(morpholinomethyl)-2-pyridyl]-1,3-benzothiazol-2-yl]urea]	≤ 1	–	≤ 1
CCNC(=O)Nc1nc2cc(-c3cnc(C(C)O)nc3)cc(-c3cc(C[S+](C)[O-])ccn3)c2s1 (stereo not drawn) [Compound 16, 1-ethyl-3-[5-[2-(1-hydroxyethyl)pyrimidin-5-yl]-7-[4-(methylsulfinylmethyl)-2-pyridyl]-1,3-benzothiazol-2-yl]urea]	≤ 1	–	2 (≈ 4.03 µM)
CCNC(=O)Nc1nc2cc(-c3cnc(C(C)(C)O)nc3)cc(-c3cc(N4CCC(C)(C(=O)O)CC4)ccn3)c2s1 [Compound 50, 1-[2-[2-(ethylcarbamoylamino)-5-[2-(1-hydroxy-1-methyl-ethyl)pyrimidin-5-yl]-1,3-benzothiazol-7-yl]-4-pyridyl]-4-methyl-piperidine-4-carboxylic acid]	≤ 1	–	≤ 1
CCNC(=O)Nc1nc2cc(-c3cnc(C(C)O)nc3)cc(-c3cc(CN4CC(O)C4)ccn3)c2s1 (stereo not drawn) [Compound 65, 1-ethyl-3-[7-[4-[(3-hydroxyazetidin-1-yl)methyl]-2-pyridyl]-5-[2-(1-hydroxyethyl)pyrimidin-5-yl]-1,3-benzothiazol-2-yl]urea]	≤ 1	–	2 (≈ 3.96 µM)
CCNC(=O)Nc1nc2cc(-c3cnc(C(C)(C)OC(=O)CCC(=O)OC)nc3)cc(-c3ccccn3)c2s1 [Compound 20, O4-[1-[5-[2-(ethylcarbamoylamino)-7-(2-pyridyl)-1,3-benzothiazol-5-yl]pyrimidin-2-yl]-1-methyl-ethyl] O1-methyl butanedioate]	≤ 1	–	2 (≈ 3.65 µM)
CCNC(=O)Nc1nc2cc(-c3cnc(C(C)(C)O)nc3)cc(-c3ccnc(N4CCC(C)(C(=O)O)CC4)n3)c2s1 [Compound 52, 1-[4-[2-(ethylcarbamoylamino)-5-[2-(1-hydroxy-1-methyl-ethyl)pyrimidin-5-yl]-1,3-benzothiazol-7-yl]pyrimidin-2-yl]-4-methyl-piperidine-4-carboxylic acid]	≤ 1	–	2 (≈ 3.47 µM)
CCNC(=O)Nc1nc2cc(-c3cnc(C(C)(C)O)nc3)cc(-c3nccc(NCCN4CCOCC4)n3)c2s1 [Compound 91, 1-ethyl-3-[5-[2-(1-hydroxy-1-methyl-ethyl)pyrimidin-5-yl]-7-[4-(2-morpholinoethylamino)pyrimidin-2-yl]-1,3-benzothiazol-2-yl]urea]	≤ 1	–	2 (≈ 3.55 µM)
CCNC(=O)Nc1nc2cc(-c3cnc(C(C)(C)O)cn3)cc(-c3ccccn3)c2s1 [Compound 49, 1-ethyl-3-[5-[5-(1-hydroxy-1-methyl-ethyl)pyrazin-2-yl]-7-(2-pyridyl)-1,3-benzothiazol-2-yl]urea]	≤ 1	–	≤ 1
CCNC(=O)Nc1nc2cc(-c3ccc(C(C)(C)O)nc3)c(O)c(CN(C)C)c2s1 [Compound 41]	16 (≈ 37.2 µM)	–	16 (≈ 37.2 µM)
CCNC(=O)Nc1nc2cc(-c3cnc(C4(O)CCN(C)CC4)nc3)cc(-c3ccccn3)c2s1 [Compound 128, 1-ethyl-3-[5-[2-(4-hydroxy-1-methyl-4-piperidyl)pyrimidin-5-yl]-7-(2-pyridyl)-1,3-benzothiazol-2-yl]urea]	≤ 1	–	≤ 1
CCNC(=O)Nc1nc2cc(-c3cnc(C(C)(C)OC(=O)N4CCN(C)CC4)nc3)cc(-c3ccccn3)c2s1 [Compound 89, [1-[5-[2-(ethylcarbamoylamino)-7-(2-pyridyl)-1,3-benzothiazol-5-yl]pyrimidin-2-yl]-1-methyl-ethyl] 4-methylpiperazine-1-carboxylate]	2 (≈ 3.57 µM)	–	8 (≈ 14.3 µM)
CCNC(=O)Nc1nc2cc(-c3cnc(C4(O)CCCCC4)nc3)cc(-c3ccccn3)c2s1 [Compound 47, 1-ethyl-3-[5-[2-(1-hydroxycyclohexyl)pyrimidin-5-yl]-7-(2-pyridyl)-1,3-benzothiazol-2-yl]urea]	8 (≈ 16.9 µM)	–	8 (≈ 16.9 µM)
CC(C)(O)c1ncc(-c2cc(-c3ccccn3)c3sc(NC(=O)NCCO)nc3c2)cn1 [Compound 5, 1-(2-hydroxyethyl)-3-[5-[2-(1-hydroxy-1-methyl-ethyl)pyrimidin-5-yl]-7-(2-pyridyl)-1,3-benzothiazol-2-yl]urea]	≤ 1	–	16 (≈ 35.5 µM)
CCNC(=O)Nc1nc2cc(-c3cnc(C(C)O)nc3)cc(OCc3ccc(C)nc3)c2s1 (stereo not drawn) [Compound 14, 1-ethyl-3-[5-[2-(1-hydroxyethyl)pyrimidin-5-yl]-7-[(6-methyl-3-pyridyl)methoxy]-1,3-benzothiazol-2-yl]urea]	≤ 1	–	≤ 1
CCNC(=O)Nc1nc2cc(-c3cnc(C(C)(C)O)nc3)c(OCCOC)cc2s1 [Compound 183, 1-ethyl-3-[5-[2-(1-hydroxy-1-methyl-ethyl)pyrimidin-5-yl]-6-(2-methoxyethoxy)-1,3-benzothiazol-2-yl]urea]	≤ 1	–	≤ 1
CCNC(=O)Nc1nc2cc(-c3cnc(C(C)(C)O)nc3)cc(COC)c2s1 [Compound 13, 1-ethyl-3-[5-[2-(1-hydroxy-1-methyl-ethyl)pyrimidin-5-yl]-7-(methoxymethyl)-1,3-benzothiazol-2-yl]urea]	2 (≈ 4.98 µM)	–	≤ 1
